From US11291643B2, “Methods of treating hypertriglyceridemia” (Amarin Pharmaceuticals Ireland Limited, priority 2011, dated 2022)

System: patients with fasting triglyceride levels ≥500 mg/dL
Assay: Lipoprotein particle concentration by NMR spectroscopy in the clinical study
Format: in vivo, human
Settings: for IDL particle concentration, median change from baseline / Large HDL particle concentration, median change from baseline / Large LDL particle concentration, median change from baseline / Large VLDL particle concentration, median change from baseline / Medium HDL particle concentration, median change from baseline / Medium VLDL particle concentration, median change from baseline / Small HDL particle concentration, median change from baseline / Small LDL particle concentration, median change from baseline / Small VLDL particle concentration, median change from baseline / Total HDL particle concentration, median change from baseline / Total LDL particle concentration, median change from baseline / Total VLDL particle concentration, median change from baseline: baseline to study end; for IDL particle concentration, end-of-treatment value (median) / Large HDL particle concentration, end-of-treatment value (median) / Large LDL particle concentration, end-of-treatment value (median) / Large VLDL particle concentration, end-of-treatment value (median) / Medium HDL particle concentration, end-of-treatment value (median) / Medium VLDL particle concentration, end-of-treatment value (median) / Small HDL particle concentration, end-of-treatment value (median) / Small LDL particle concentration, end-of-treatment value (median) / Small VLDL particle concentration, end-of-treatment value (median) / Total HDL particle concentration, end-of-treatment value (median) / Total LDL particle concentration, end-of-treatment value (median) / Total VLDL particle concentration, end-of-treatment value (median): study end
Description: Lipoprotein particle concentrations and sizes were measured with nuclear magnetic resonance spectroscopy in the above described clinical trial. Lipoprotein particle size and concentration parameters were obtained from fasting blood samples. Lipoprotein particle size and concentrations are measured by nuclear magnetic resonance (NMR) spectroscopy at LipoScience, Inc. (Raleigh, N.C.) using the LipoProfile-3 algorithm. VLDL, LDL, and HDL subclasses of different size were quantified from the amplitudes of their spectroscopically-distinct lipid methyl group NMR signals.
Concentrations of the following subclasses of lipoproteins were analyzed in this study: small LDL (18.0-20.5 nm), large LDL (20.5-23.0 nm), intermediate-density lipoprotein (IDL; 23.0-29.0 nm), large high-density lipoprotein (HDL; 9.4-14.0 nm), medium HDL (8.2-9.4 nm), small HDL (7.3-8.2 nm), large very-low-density lipoprotein (VLDL; >60 nm), medium VLDL (42-60 nm), and small VLDL (29-42 nm).
Subjects with missing baseline or Week 12 measurements, due to either missing laboratory samples or un-reportable values, were excluded from this analysis. The median difference of each lipoprotein particle variable (percent change from baseline) between each AMR101 treatment group and the placebo group was evaluated with a nonparametric test using the Hodges-Lehmann medians of the differences between treatment groups and the Wilcoxon rank-sum test (significance level 0.05). All statistical analyses were carried out using SAS 9.2 software.

[1] = 4 g/day vs placebo, Hodges-Lehmann median
[2] = 4 g/day vs placebo, stated as reduction

Compound: CC/C=C\C/C=C\C/C=C\C/C=C\C/C=C\CCCC(=O)OCC [AMR101, ethyl eicosapentaenoate]
- IDL particle concentration, median change from baseline (2 g/day, n = 63): 0.8%
- Large HDL particle concentration, median change from baseline (2 g/day, n = 63): −1.6%
- Large LDL particle concentration, median change from baseline (2 g/day, n = 63): −20.9%
- Large VLDL particle concentration, median change from baseline (2 g/day, n = 63): −2.5%
- Medium HDL particle concentration, median change from baseline (2 g/day, n = 63): 3.9%
- Medium VLDL particle concentration, median change from baseline (2 g/day, n = 63): 18.8%
- Small HDL particle concentration, median change from baseline (2 g/day, n = 63): −3.2%
- Small LDL particle concentration, median change from baseline (2 g/day, n = 63): 9.5%
- Small VLDL particle concentration, median change from baseline (2 g/day, n = 63): 11.5%
- Total HDL particle concentration, median change from baseline (2 g/day, n = 63): −3.3%
- Total LDL particle concentration, median change from baseline (2 g/day, n = 63): 12.6%
- Total VLDL particle concentration, median change from baseline (2 g/day, n = 63): 13.1%
- IDL particle concentration, end-of-treatment value (median) (2 g/day, n = 63): 144.0 nmol/L
- Large HDL particle concentration, end-of-treatment value (median) (2 g/day, n = 63): 2.3 µmol/L
- Large LDL particle concentration, end-of-treatment value (median) (2 g/day, n = 63): 51.0 nmol/L
- Large VLDL particle concentration, end-of-treatment value (median) (2 g/day, n = 63): 29.9 nmol/L
- Medium HDL particle concentration, end-of-treatment value (median) (2 g/day, n = 63): 8.7 µmol/L
- Medium VLDL particle concentration, end-of-treatment value (median) (2 g/day, n = 63): 93.8 nmol/L
- Small HDL particle concentration, end-of-treatment value (median) (2 g/day, n = 63): 21.5 µmol/L
- Small LDL particle concentration, end-of-treatment value (median) (2 g/day, n = 63): 1100 nmol/L
- Small VLDL particle concentration, end-of-treatment value (median) (2 g/day, n = 63): 53.9 nmol/L
- Total HDL particle concentration, end-of-treatment value (median) (2 g/day, n = 63): 33.4 µmol/L
- Total LDL particle concentration, end-of-treatment value (median) (2 g/day, n = 63): 1464 nmol/L
- Total VLDL particle concentration, end-of-treatment value (median) (2 g/day, n = 63): 190.1 nmol/L
- Large VLDL particle concentration, placebo-adjusted median percent change from baseline [1]: −27.9%
- Small LDL particle concentration, placebo-adjusted median percent change from baseline [1]: −25.6%
- Small VLDL particle concentration, placebo-adjusted median percent change from baseline [1]: 5.3%
- Total HDL particle concentration, placebo-adjusted median percent change from baseline [1]: −7.4%
- Total LDL particle concentration, placebo-adjusted median percent change from baseline [1]: −16.3%
- Reduction of small LDL particle concentration [2]: 25.6%
- Reduction of total LDL particle concentration (IDL, small LDL and large LDL particles) [2]: 16.3%
- IDL particle concentration, median change from baseline (4 g/day, n = 61): 19.2%
- Large HDL particle concentration, median change from baseline (4 g/day, n = 61): 8.3%
- Large LDL particle concentration, median change from baseline (4 g/day, n = 61): −32.3%
- Large VLDL particle concentration, median change from baseline (4 g/day, n = 61): −24.5%
- Medium HDL particle concentration, median change from baseline (4 g/day, n = 61): −18.3%
- Medium VLDL particle concentration, median change from baseline (4 g/day, n = 61): 36.4%
- Small HDL particle concentration, median change from baseline (4 g/day, n = 61): −5.1%
- Small LDL particle concentration, median change from baseline (4 g/day, n = 61): −9.7%
- Small VLDL particle concentration, median change from baseline (4 g/day, n = 61): 4.3%
- Total HDL particle concentration, median change from baseline (4 g/day, n = 61): −7.1%
- Total LDL particle concentration, median change from baseline (4 g/day, n = 61): −0.1%
- Total VLDL particle concentration, median change from baseline (4 g/day, n = 61): 15.2%
- IDL particle concentration, end-of-treatment value (median) (4 g/day, n = 61): 185.0 nmol/L
- Large HDL particle concentration, end-of-treatment value (median) (4 g/day, n = 61): 2.3 µmol/L
- Large LDL particle concentration, end-of-treatment value (median) (4 g/day, n = 61): 64.0 nmol/L
- Large VLDL particle concentration, end-of-treatment value (median) (4 g/day, n = 61): 21.2 nmol/L
- Medium HDL particle concentration, end-of-treatment value (median) (4 g/day, n = 61): 8.4 µmol/L
- Medium VLDL particle concentration, end-of-treatment value (median) (4 g/day, n = 61): 106.8 nmol/L
- Small HDL particle concentration, end-of-treatment value (median) (4 g/day, n = 61): 21.6 µmol/L
- Small LDL particle concentration, end-of-treatment value (median) (4 g/day, n = 61): 998.0 nmol/L
- Small VLDL particle concentration, end-of-treatment value (median) (4 g/day, n = 61): 52.5 nmol/L
- Total HDL particle concentration, end-of-treatment value (median) (4 g/day, n = 61): 30.8 µmol/L
- Total LDL particle concentration, end-of-treatment value (median) (4 g/day, n = 61): 1419 nmol/L
- Total VLDL particle concentration, end-of-treatment value (median) (4 g/day, n = 61): 200.3 nmol/L
